“Also recorded” adds a separate entry of the source. Blank lines part the entries; values can stand above or below the substance they belong to.
What was measured:
chymotrypsin [1] = molecular target: T1, chymotrypsin (Bos taurus, UniProt P00766); experiment: LC-MS analysis of enzymatic fragments and cleavage sites with chymotrypsin; type: in vitro ADME; set-up: purchased; details: LC-MS (ESI); HEPES 50 mM pH 7.4, 37 °C, peptide:protease 40:1
Method: To further investigate how glycosylation promotes the enzymatic digestion of D-amino acid-containing peptides, we analyzed the enzymatic cleavage sites of the glycosylated peptides using LC-MS (Figures S6–S14).
(β-D-GalNAc ) (H) in the presence of chymotrypsin. The peptides were dissolved in HEPES
Chymotrypsin was added to the above solution. In which the peptide: protease (ω: ω) = 40:1.
Incubation was performed at 37°C. Method of stopping enzymatic digestion after reaching
reaction time: Chymotrypsin is extinguished with 1% TFA. Each experiment was performed

chymotrypsin [2] = molecular target: T1, chymotrypsin; experiment: Enzymatic degradation by chymotrypsin, substrate decay followed by HPLC; details: 37 °C; for Substrate decay rate constant in the presence of chymotrypsin: peptide 0.5 mg/mL in HEPES 50 mM pH 7.4, chymotrypsin 0.5 mg/mL, peptide:protease 40:1 (w/w), stopped with 1% TFA, HPLC-UV 215 nm, fit y=A0×exp(−k1×x), each experiment three times, Figure 7; for Enzymatic degradation by chymotrypsin, compared with 5-t: peptide 0.5 mg/mL, HEPES 50 mM pH 7.4, chymotrypsin 0.5 mg/mL, 40:1 (w/w), up to 8 h, HPLC, three times, Figures 5C, 6
Proteinase K (PROK) = molecular target: T2, Proteinase K (PROK) (Parengyodontium album, UniProt P06873); experiment: Enzymatic degradation by Proteinase K (PROK), protease resistance; type: in vitro ADME; details: peptide 0.5 mg/mL in HEPES 50 mM pH 7.4 (600 μL) + PROK 1.5 mg/mL (15.0 μL); 50 °C; 0-8 h; quenched with 1% TFA; HPLC 215 nm; three times; Figure 4
T2 construct: purchased
Method: The peptides were dissolved in HEPES buffer (50 mM, pH = 7.4) to a final concentration of 0.5 mg/mL. Proteinase K (PROK) was prepared in deionized water at a final concentration of 1.5 mg/mL. The peptide solutions (600 μL) were then incubated with PROK solution (15.0 μL) at 50 °C. At 0, 0.5, 1.0, 2.0, 4.0, and 8.0 h intervals, 100 μL of the digestion mixture was taken and quenched with 100 μL of 1% TFA in water. The enzymatic hydrolysis of peptides was monitored by HPLC at 215 nm. Each experiment was performed three times.

chymotrypsin [3] = experiment: chymotrypsin in HEPES buffer solution (50 mM, pH = 7.4); details: 37 °C, up to 8 h
pepsin = pepsin in HEPES buffer (50 mM, pH=7.4); details: 37 °C, up to 8 h
papain = papain in HEPES buffer (50 mM, pH=7.4); details: 37 °C, up to 8 h
[4] = RP-HPLC retention time of peptides (hydrophobicity/polarity); type: physicochemical; details: chromatographic, C18 reversed phase, 0.1% TFA water/acetonitrile, gradient 10-50% solvent B over 30 min, 1 mL/min, UV; used as measure of hydrophobicity/polarity; Figure 3D
Method: Purification was performed on a ZORBAX Eclipse XDB-C18 reversed-phase column (5 μm, 9.4 × 250 mm, Agilent, Santa Clara, CA, USA) using solvent A (0.1% TFA in water) and solvent B (0.1% TFA in acetonitrile). Elution was performed at a flow rate of 1 mL/min with a gradient of 10–50% solvent B over 30 min, and detection was carried out using a UV detector at 220 nm. All purified peptide samples were freeze-dried to yield a white powder.

T2 sequence (P06873 106-384): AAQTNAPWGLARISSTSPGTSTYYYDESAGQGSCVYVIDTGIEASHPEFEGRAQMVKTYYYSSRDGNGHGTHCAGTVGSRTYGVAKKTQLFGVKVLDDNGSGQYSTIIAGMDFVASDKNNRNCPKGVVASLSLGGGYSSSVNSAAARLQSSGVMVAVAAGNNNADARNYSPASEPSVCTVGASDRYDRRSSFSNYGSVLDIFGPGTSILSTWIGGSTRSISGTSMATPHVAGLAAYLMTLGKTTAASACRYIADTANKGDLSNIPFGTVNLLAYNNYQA

Cleavage sites in the presence of chymotrypsin (chymotrypsin [1]): Tyr2-Asn3, Arg7-Ser8
Substrate decay rate constant in the presence of chymotrypsin (chymotrypsin [2]): 0.187 h⁻¹
Enzymatic degradation by chymotrypsin, compared with 5-t (chymotrypsin [2]): digested more efficiently than 5-t
Substance: KYNE(t-β-D-Rib)WRSED [5-t-(β-D-Rib)]
Enzymatic fragments in the presence of chymotrypsin (chymotrypsin [1]): KY, KYNE-(t-β-D-Rib)-WR, NE-(t-β-D-Rib)-WR, NE-(t-β-D-Rib)-WRSED, SED

Cleavage sites in the presence of chymotrypsin (chymotrypsin [1]): Tyr2-Asn3, Arg7-Ser8
Substance: KYNE(t-β-D-Gal)WRSED [5-t-(β-D-Gal)]
Enzymatic fragments in the presence of chymotrypsin (chymotrypsin [1]): KY, NE-(t-β-D-Gal)-WR, NE-(t-β-D-Gal)-WRSED, SED

Cleavage sites in the presence of chymotrypsin (chymotrypsin [1]): Tyr2-Asn3, Arg7-Ser8
Substance: KYNE(t-α-D-Glc)WRSED [5-t-(α-D-Glc)]
Enzymatic fragments in the presence of chymotrypsin (chymotrypsin [1]): KY, NE-(t-α-D-Glc)-WR, NE-(t-α-D-Glc)-WRSED, SED

cleaved bond (chymotrypsin [3]): Arg7-Ser8
Substance: KTNE(t-β-D-Gal-NAc)WRSED

Retention time in RP-HPLC [4]: 21.481 min
Substance: KYNE(t-β-D-Glc-Ac4)WRSED [5-t-(β-D-Glc-Ac4)]

cleaved bond (chymotrypsin [3]): Tyr2-Asn3; also recorded: Arg7-Ser8
Substance: KYNE(t-β-D-Glc)WRSED
not cleaved (pepsin): no enzymatic degradation; substrate molar fraction 1.0 at 8 h
not cleaved (papain): no enzymatic degradation; substrate molar fraction 1.0 at 8 h

Second part, the substance before the results:

Substance: KYNEtWRSED [5-t]
Cleavage sites in the presence of chymotrypsin (chymotrypsin [1]): Tyr2-Asn3, Arg7-Ser8
Enzymatic fragments in the presence of chymotrypsin (chymotrypsin [1]): KY, NE-t-WR, NE-t-WRSED, SED
Substrate decay rate constant in the presence of chymotrypsin (chymotrypsin [2]): 0.103 h⁻¹

Substance: KYNE(t-β-L-Rib)WRSED [5-t-(β-L-Rib)]
Enzymatic degradation by PROK, substrate decay curves compared (Proteinase K (PROK)): more pronounced inhibitory effect on peptide enzymatic degradation compared to D-ribose
Cleavage sites in the presence of chymotrypsin (chymotrypsin [1]): Tyr2-Asn3, Arg7-Ser8
Enzymatic fragments in the presence of chymotrypsin (chymotrypsin [1]): KY, KYNE(t-β-L-Rib)-WR, NE-(t-β-L-Rib)-WR, NE-(t-β-L-Rib)-WRSED, SED
Substrate decay rate constant in the presence of chymotrypsin (chymotrypsin [2]): 0.144 h⁻¹
Enzymatic degradation by chymotrypsin, compared with 5-t (chymotrypsin [2]): digested more efficiently than 5-t

Substance: KYNEtWRSED
cleaved bond (chymotrypsin [3]): Tyr2-Asn3; also recorded: Arg7-Ser8
not cleaved (pepsin): no enzymatic degradation; substrate molar fraction 1.0 at 8 h
not cleaved (papain): no enzymatic degradation; substrate molar fraction 1.0 at 8 h

Substance: KYNE(t-β-D-Glc)WRSED [5-t-(β-D-Glc)]
Enzymatic degradation by PROK, substrate decay curves compared (Proteinase K (PROK)): nearly identical
Cleavage sites in the presence of chymotrypsin (chymotrypsin [1]): Tyr2-Asn3, Arg7-Ser8
Enzymatic fragments in the presence of chymotrypsin (chymotrypsin [1]): KY, NE-(t-β-D-Glc)-WR, NE-(t-β-D-Glc)-WRSED, SED

Substance: KYNE(t-β-D-Glc)WR(S-β-D-Glc)ED
cleaved bond (chymotrypsin [3]): Tyr2-Asn3; also recorded: Arg7-Ser8

Substance: KYNEtWR(S-β-D-Glc)ED [5-t-(S-β-D-Glc)]
Enzymatic degradation by PROK, substrate decay curves compared (Proteinase K (PROK)): higher than that of 5-t-(β-D-Glc)
Cleavage sites in the presence of chymotrypsin (chymotrypsin [1]): Tyr2-Asn3, Arg7-Ser8
Enzymatic fragments in the presence of chymotrypsin (chymotrypsin [1]): KY, KYNE-t-WR, NE-t-WR, NE-t-WR-(S-β-D-Glc)-ED, (S-β-D-Glc)-ED

Substance: KYNEtWR(S-β-D-Glc)ED
cleaved bond (chymotrypsin [3]): Tyr2-Asn3; also recorded: Arg7-Ser8

Substance: KYNE(t-α-D-Glc)WRSED
cleaved bond (chymotrypsin [3]): Arg7-Ser8; also recorded: Tyr2-Asn3

Substance: KYNE(t-β-D-Rib)WRSED
cleaved bond (chymotrypsin [3]): Tyr2-Asn3; also recorded: Arg7-Ser8

Substance: KTNE(t-β-D-Gal-NAc)WRSED [5-t-(β-D-GalNAc)]
Cleavage sites in the presence of chymotrypsin (chymotrypsin [1]): Tyr2-Asn3, Arg7-Ser8
Enzymatic fragments in the presence of chymotrypsin (chymotrypsin [1]): KY, NE-(t-β-D-GalNAc)-WR, NE-(t-β-D-Gal-NAc)-WRSED, SED
Substrate decay rate constant in the presence of chymotrypsin (chymotrypsin [2]): 0.106 h⁻¹

Substance: KYNE(t-β-L-Rib)WRSED
cleaved bond (chymotrypsin [3]): Tyr2-Asn3; also recorded: Arg7-Ser8

Substance: KYNE(t-β-D-Gal)WRSED
cleaved bond (chymotrypsin [3]): Tyr2-Asn3; also recorded: Arg7-Ser8

From PMC11820358 (Molecules, 2025)
